{
  "source": "paper PMC9684079",
  "about": "“Pharmacological targeting of glutamatergic neurons within the brainstem for weight reduction” (Nature Metabolism, 2022)",
  "test_in_all_cases": "biochemical",
  "design_in_all_cases": "Cerep/Eurofins selectivity panel, receptors, channels and transporters, per cent inhibition at 10 uM",
  "details_in_all_cases": "read-out: % Inhibition",
  "key": {"[1]": {"target": "T1, APJ (Homo sapiens, UniProt P35414)", "T1 construct": "gene APLNR"}, "[2]": {"target": "T2, Angiotensin AT1 (Homo sapiens, UniProt P30556)", "T2 construct": "gene AGTR1", "T2 sequence (P30556 whole entry)": "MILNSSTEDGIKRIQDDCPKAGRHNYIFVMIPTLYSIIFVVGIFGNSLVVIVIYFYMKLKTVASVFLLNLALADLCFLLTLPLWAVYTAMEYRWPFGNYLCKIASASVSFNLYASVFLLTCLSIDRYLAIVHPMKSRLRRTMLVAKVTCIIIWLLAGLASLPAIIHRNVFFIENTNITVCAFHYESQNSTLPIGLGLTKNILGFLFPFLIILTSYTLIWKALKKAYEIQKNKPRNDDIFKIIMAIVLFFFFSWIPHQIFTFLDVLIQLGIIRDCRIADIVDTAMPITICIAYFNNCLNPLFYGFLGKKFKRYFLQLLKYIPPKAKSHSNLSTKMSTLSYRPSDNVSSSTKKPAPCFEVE"}, "[3]": {"target": "T3, Bradykinin B2 (Homo sapiens, UniProt P30411)", "T3 construct": "gene BDKRB2", "T3 sequence (P30411 whole entry)": "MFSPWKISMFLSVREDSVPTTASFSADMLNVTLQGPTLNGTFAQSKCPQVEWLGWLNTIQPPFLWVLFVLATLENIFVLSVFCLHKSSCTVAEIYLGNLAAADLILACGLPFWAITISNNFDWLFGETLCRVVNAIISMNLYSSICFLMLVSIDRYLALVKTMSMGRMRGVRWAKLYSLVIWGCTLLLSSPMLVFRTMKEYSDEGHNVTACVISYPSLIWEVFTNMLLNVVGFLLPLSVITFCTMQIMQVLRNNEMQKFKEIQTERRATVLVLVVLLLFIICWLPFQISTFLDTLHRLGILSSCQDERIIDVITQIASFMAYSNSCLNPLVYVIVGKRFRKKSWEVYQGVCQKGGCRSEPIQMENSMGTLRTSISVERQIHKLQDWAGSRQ"}, "[4]": {"target": "T4, Dopamine D4.2 (Homo sapiens, UniProt P21917)", "T4 construct": "gene DRD4; D4.2", "T4 sequence (P21917 whole entry)": "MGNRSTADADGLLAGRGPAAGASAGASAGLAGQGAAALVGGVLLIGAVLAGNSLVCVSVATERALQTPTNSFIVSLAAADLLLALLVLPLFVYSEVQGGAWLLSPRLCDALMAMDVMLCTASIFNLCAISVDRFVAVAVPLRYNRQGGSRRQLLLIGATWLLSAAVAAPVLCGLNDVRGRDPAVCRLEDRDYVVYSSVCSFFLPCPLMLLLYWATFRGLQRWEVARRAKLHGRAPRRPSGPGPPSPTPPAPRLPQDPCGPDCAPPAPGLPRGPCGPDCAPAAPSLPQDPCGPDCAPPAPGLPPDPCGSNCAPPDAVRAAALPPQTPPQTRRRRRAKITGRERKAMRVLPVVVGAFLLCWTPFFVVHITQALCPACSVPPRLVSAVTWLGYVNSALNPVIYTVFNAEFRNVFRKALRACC"}, "[5]": {"target": "T5, Estrogen ERβ (Homo sapiens, UniProt Q92731)", "T5 construct": "gene ESR2", "T5 sequence (Q92731 whole entry)": "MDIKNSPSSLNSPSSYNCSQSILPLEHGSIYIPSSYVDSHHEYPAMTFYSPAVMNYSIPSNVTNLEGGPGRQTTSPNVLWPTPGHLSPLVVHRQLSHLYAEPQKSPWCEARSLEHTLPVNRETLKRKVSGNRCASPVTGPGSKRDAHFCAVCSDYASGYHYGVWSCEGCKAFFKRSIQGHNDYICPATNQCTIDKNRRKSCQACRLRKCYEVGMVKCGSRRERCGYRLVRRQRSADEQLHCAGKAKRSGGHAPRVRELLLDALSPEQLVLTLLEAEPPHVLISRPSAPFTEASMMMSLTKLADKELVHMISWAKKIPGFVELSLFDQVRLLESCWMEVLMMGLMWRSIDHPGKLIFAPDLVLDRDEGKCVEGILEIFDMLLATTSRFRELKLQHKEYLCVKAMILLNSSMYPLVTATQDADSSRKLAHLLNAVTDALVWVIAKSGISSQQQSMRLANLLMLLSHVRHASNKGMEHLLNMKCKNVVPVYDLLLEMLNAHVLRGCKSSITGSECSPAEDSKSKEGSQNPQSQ"}, "[6]": {"target": "T6, Estrogen Erα (Homo sapiens, UniProt P03372)", "T6 construct": "gene ESR1"}, "[7]": {"target": "T7, GABAB1A (Homo sapiens, UniProt Q9UBS5)", "T7 construct": "gene GABBR1; isoform 1A"}, "[8]": {"target": "T8, GABAB1B (Homo sapiens, UniProt Q9UBS5)", "T8 construct": "gene GABBR1; isoform 1B"}, "[9]": {"target": "T9, Muscarinic M2 (Homo sapiens, UniProt P08172)", "T9 construct": "gene CHRM2"}, "[10]": {"target": "T10, Muscarinic M3 (Homo sapiens, UniProt P20309)", "T10 construct": "gene CHRM3", "T10 sequence (P20309 whole entry)": "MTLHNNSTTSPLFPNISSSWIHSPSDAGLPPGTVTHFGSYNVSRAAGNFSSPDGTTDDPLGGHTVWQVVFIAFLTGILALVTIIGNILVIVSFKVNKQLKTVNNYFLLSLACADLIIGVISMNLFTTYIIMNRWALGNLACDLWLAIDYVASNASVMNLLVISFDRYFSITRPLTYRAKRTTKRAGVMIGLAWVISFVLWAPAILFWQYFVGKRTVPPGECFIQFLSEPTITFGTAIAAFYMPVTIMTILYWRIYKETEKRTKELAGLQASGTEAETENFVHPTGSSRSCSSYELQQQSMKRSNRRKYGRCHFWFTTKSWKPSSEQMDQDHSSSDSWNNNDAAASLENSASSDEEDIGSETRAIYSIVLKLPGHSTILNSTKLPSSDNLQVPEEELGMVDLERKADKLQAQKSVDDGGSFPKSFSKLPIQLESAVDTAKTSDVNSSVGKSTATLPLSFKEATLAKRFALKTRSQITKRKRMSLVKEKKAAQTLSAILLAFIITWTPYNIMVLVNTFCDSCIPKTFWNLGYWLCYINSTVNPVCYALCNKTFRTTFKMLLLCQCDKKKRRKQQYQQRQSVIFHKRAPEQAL"}, "[11]": {"target": "T11, Muscarinic M4 (Homo sapiens, UniProt P08173)", "T11 construct": "gene CHRM4", "T11 sequence (P08173 whole entry)": "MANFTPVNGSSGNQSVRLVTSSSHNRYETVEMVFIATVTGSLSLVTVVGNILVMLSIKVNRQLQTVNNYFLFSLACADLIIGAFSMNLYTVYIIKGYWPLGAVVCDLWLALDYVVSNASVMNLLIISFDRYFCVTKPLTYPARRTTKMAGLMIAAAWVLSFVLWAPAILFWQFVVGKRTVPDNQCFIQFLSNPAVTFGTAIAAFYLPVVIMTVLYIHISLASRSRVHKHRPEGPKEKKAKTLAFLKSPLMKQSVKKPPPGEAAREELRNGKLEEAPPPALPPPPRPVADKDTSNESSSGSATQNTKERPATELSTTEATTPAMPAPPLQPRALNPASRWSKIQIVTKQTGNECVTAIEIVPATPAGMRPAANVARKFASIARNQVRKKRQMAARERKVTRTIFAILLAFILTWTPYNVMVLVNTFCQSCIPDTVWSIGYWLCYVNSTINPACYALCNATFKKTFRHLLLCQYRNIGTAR"}, "[12]": {"target": "T12, Opiate δ1 (OP1, DOP) (Homo sapiens, UniProt P41143)", "T12 construct": "gene OPRD1"}, "[13]": {"target": "T13, Progesterone PR-B (Homo sapiens, UniProt P06401)", "T13 construct": "gene PGR; PR-B isoform", "T13 sequence (P06401 whole entry, canonical isoform)": "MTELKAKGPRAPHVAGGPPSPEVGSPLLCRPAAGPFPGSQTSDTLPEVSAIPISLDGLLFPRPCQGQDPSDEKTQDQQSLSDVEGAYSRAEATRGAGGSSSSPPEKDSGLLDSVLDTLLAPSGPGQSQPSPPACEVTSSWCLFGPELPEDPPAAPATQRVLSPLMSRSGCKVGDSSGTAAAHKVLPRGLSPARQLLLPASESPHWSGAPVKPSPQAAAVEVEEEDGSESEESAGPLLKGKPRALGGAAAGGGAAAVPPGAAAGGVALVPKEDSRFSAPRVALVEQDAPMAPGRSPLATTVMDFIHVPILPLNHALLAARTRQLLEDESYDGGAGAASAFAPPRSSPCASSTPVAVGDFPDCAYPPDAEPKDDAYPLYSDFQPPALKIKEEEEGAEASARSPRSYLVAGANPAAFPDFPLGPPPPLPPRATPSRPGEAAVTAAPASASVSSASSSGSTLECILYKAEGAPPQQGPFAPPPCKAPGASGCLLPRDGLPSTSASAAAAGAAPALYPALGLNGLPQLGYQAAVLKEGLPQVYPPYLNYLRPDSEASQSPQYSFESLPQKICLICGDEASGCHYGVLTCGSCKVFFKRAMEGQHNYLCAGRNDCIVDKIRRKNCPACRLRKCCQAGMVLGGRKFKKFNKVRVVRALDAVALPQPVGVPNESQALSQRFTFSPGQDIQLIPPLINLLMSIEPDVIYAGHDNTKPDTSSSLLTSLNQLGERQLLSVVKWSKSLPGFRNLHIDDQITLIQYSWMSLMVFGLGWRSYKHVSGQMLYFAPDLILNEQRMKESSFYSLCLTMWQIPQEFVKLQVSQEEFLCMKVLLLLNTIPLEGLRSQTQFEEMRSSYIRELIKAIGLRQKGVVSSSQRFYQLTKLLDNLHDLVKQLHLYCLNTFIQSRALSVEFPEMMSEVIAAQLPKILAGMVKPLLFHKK"}, "[14]": {"target": "T14, Transporter, Serotonin (SERT) (Homo sapiens, UniProt P31645)", "T14 construct": "gene SLC6A4"}, "[15]": {"target": "T15, Vasopressin V1b (Homo sapiens, UniProt P47901)", "T15 construct": "gene AVPR1B", "T15 sequence (P47901 whole entry)": "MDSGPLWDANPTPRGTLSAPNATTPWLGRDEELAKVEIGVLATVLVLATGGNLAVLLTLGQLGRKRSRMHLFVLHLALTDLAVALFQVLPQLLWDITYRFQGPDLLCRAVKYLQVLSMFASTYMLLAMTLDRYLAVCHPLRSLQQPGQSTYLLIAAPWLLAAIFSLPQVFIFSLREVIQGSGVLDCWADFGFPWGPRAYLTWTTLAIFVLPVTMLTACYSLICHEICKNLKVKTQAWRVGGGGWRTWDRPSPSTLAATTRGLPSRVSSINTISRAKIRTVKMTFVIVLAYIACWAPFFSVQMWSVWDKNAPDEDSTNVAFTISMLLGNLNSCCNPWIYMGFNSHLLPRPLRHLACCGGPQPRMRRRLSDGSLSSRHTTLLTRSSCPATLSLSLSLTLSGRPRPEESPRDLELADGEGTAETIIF"}, "[16]": {"target": "T16, Vasopressin V2 (Homo sapiens, UniProt P30518)", "T16 construct": "gene AVPR2", "T16 sequence (P30518 whole entry)": "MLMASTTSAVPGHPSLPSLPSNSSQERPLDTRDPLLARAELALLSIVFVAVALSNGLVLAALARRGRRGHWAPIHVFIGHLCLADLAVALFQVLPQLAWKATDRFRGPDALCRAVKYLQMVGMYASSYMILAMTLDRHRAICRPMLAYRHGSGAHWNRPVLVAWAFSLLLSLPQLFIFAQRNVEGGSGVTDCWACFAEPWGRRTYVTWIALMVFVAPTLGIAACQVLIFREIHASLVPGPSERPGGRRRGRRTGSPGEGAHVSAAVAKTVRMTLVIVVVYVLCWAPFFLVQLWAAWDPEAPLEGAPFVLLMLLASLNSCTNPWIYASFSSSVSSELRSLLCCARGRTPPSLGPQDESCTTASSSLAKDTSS"}, "[17]": {"target": "T17, Growth Hormone Secretogogue (GHS, Ghrelin) (Homo sapiens, UniProt Q92847)", "T17 construct": "gene GHSR", "T17 sequence (Q92847 whole entry)": "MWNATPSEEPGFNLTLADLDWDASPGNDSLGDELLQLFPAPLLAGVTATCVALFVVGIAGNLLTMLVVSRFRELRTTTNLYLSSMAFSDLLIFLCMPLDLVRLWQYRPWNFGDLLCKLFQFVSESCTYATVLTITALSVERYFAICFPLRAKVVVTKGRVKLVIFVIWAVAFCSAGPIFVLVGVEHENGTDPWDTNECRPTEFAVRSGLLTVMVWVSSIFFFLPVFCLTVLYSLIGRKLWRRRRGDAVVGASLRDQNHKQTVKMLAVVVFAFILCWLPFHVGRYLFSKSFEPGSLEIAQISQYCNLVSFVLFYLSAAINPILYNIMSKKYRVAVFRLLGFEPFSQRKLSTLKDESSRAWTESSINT"}},
  "data": [
    {"smiles": "C[C@]1(Nc2cnc(C(F)(F)F)cn2)CCC[C@@H]1NC(=O)c1ncccc1-n1nccn1", "note": "[CVN45502]", "values": [
      {"measurement": "inhibition at 10 µM", "setting": "[1]", "result": -4, "unit": "%"},
      {"measurement": "inhibition at 10 µM", "setting": "[2]", "result": -1, "unit": "%"},
      {"measurement": "inhibition at 10 µM", "setting": "[3]", "result": -18, "unit": "%"},
      {"measurement": "inhibition at 10 µM", "setting": "[4]", "result": -9, "unit": "%"},
      {"measurement": "inhibition at 10 µM", "setting": "[5]", "result": 4, "unit": "%"},
      {"measurement": "inhibition at 10 µM", "setting": "[6]", "result": 2, "unit": "%"},
      {"measurement": "inhibition at 10 µM", "setting": "[7]", "result": -8, "unit": "%"},
      {"measurement": "inhibition at 10 µM", "setting": "[8]", "result": -1, "unit": "%"},
      {"measurement": "inhibition at 10 µM", "setting": "[9]", "result": -7, "unit": "%"},
      {"measurement": "inhibition at 10 µM", "setting": "[10]", "result": -1, "unit": "%"},
      {"measurement": "inhibition at 10 µM", "setting": "[11]", "result": 10, "unit": "%"},
      {"measurement": "inhibition at 10 µM", "setting": "[12]", "result": -4, "unit": "%"},
      {"measurement": "inhibition at 10 µM", "setting": "[13]", "result": 21, "unit": "%"},
      {"measurement": "inhibition at 10 µM", "setting": "[14]", "result": 7, "unit": "%"},
      {"measurement": "inhibition at 10 µM", "setting": "[15]", "result": -8, "unit": "%"},
      {"measurement": "inhibition at 10 µM", "setting": "[16]", "result": -4, "unit": "%"},
      {"measurement": "inhibition at 10 µM", "setting": "[17]", "result": -5, "unit": "%"}
    ]}
  ]
}
